Where two headings read alike, the source gives them in different places.
How the values were obtained:
[1] = test system: Wasser-Immersions-Streßgeschwüren; test: water-immersion stress ulcer model in rats, oral administration; assay type: in vivo, Ratten; set-up: Ulkusindex: scale not given here; conditions: for Ulkusindex / Prozent der Unterdrückung des Ulkusindexes / Prozentsatz der Unterdrückung des Ulkusindexes: rats
From the text: Die Versuche werden mit 280 weißen männlichen Ratten - Wistar-Rasse - mit einem Gewicht von 150 bis 200 g nach der Takagi K., Ishii Y, Arzneim. Forsch. Drug.Res. 17, 1544 (1967) Methode durchgeführt und entsprechend modifiziert. Achtzehn Stunden vor dem Versuch werden die Tiere nicht gefüttert bei freiem Zugang zu Wasserquellen. Die Verbindungen der allgemeinen Formel I werden oral verabreicht; anschließend werden die Ratten, zur Verhinderung jeglicher Bewegung, auf dem Rücken an einer Unterlage angebunden, untereinander isoliert und in bis auf 17 - 18° C temperiertes Wasser getaucht. Fünf Stunden später wurden die Tiere getötet, ihre Mägen herausgenommen und makroskopische destruktive Änderungen festgestellt.
Die Prüfmethode ist dieselbe wie in Beispiel 1.

[2] = test system: durch Reserpin hervorgerufenen Geschwüren; test: reserpine-induced ulcer model in rats; assay type: in vivo, Ratten; set-up: Ulkusindex: scale not given here; conditions: for Prozentsatz der Unterdrückung des Ulkusindexes / Ulkusindex: Table 6, rats; for Ulkusindex: Kontrolle 44,58
Procedure: Die Versuche werden mit 180 weißen, männlichen Ratten - Rasse Wistar - mit einem Gewicht von 180 bis 270 g durchgeführt. Die Tiere werden 48 Stunden nicht gefüttert bei freiem Zugang zu Wasserquellen. Die Geschwüre wurden hervorgerufen durch die Injektion von 5 mg/kg Reserpin. Eine halbe Stunde vor Einführung des Reserpins erhalten die Tiere peroral verschiedene Dosen von Ia, die Kontrolltiere Wasser, 24 Stunden nach Einführung des Reserpins werden die Tiere mit Thiopental getötet. Die destruktiven Magenveränderungen werden makroskopisch bestimmt. Es wurden Vergleichsuntersuchungen mit Cimetidin und Ranitidin (Tabelle 6) durchgeführt.

Geschwüren nach Shei = test: ulcer model according to Shei (ligature) in rats; assay type: in vivo, Ratten; conditions: Table 7, Kontrolle 16
From the text: Die Versuche wurden mit weißen, männlichen Ratten, Rasse Wistar, mit einem Gewicht von 180 bis 270 g durchgeführt. Die Tiere werden 48 Stunden nicht gefüttert bei freiem Zugang zu Wasserquellen. 5 Stunden nach der Ligatur werden die Tiere getötet, die Mägen werden herausgenommen und die destruktiven Veränderungen makroskopisch untersucht. Als Vergleichspräparate wurden Cimetidin und Ranitidin angewandt (Tabelle 7). TABELLE 7

acute toxicity in mice = conditions: mouse, in vivo, Mäusen, read-out: LD₅₀
[3] = test system: durch Indometacin hervorgerufenen Geschwüren; test: indometacin-induced ulcer model in rats; assay type: in vivo, Ratten
Procedure: Die Versuche werden mit 50 weißen, männlichen Ratten der Rasse Wistar mit einem Gewicht von 170 bis 200 g durchgeführt. Achtzehn Stunden vor dem Versuch werden die Tiere nicht gefüttert bei freiem Zugang zu Wasserquellen. Das Indometacin wird in einer Dosis von 35 mg/kg intraperitoneal eine halbe Stunde nach der peroralen Verabreichung der Verbindung Ia, eingeführt. In der fünften Stunde werden die Tiere getötet, die Mägen werden herausgenommen und es werden makroskopisch die destruktiven Veränderungen bestimmt. TABELLE 5

Streßgeschwüren = conditions: experimental models of stress ulcers in mice; M. Bickel, Arzn.Forsch. 30 (1), 69, 1980; cited from earlier work
sauere Magensekret = conditions: in contrast to Histamin-H₂-Antagonisten; M. Bickel, Arzn.Forsch. 30 (1), 69, 1980; cited from earlier work
[4] = Table 1, peroral, Dosis 1 mg/kg, 5 h immersion, Kontrolle 55,1
[5] = Table 1, peroral, Dosis 1 mg/kg, 5 h immersion

Q: What does the source list for `CCOC(=O)Nc1cccc2c1CN(C)CC2c1ccc(Cl)cc1.O=C(O)/C=C\C(=O)O` (racemic) [Ib, /+/-2-Methyl-4-/4-chlorphenyl/8-ethoxycarbonylamino-1,2,3,4-tetrahydroisochinolin-saures Maleat]?
A: Ulkusindex [1, 4]: 7,00; Aktivität im Vergleich mit /+/(Ib) ([1]; Table 1 data, 1 mg/kg peroral): vierfach niedrigere Aktivität

Q: With `CCOC(=O)Nc1cccc2c1CN(C)CC2c1ccccc1.O=C(O)/C=C\C(=O)O` (stereo not drawn) [Ig, /-/-2-Methyl-4-phenyl-8-ethoxycarbonylamino-1,2,3,4-tetrahydroisochinolin-saures Maleat] as the compound, how does the “Prozent der Unterdrückung des Ulkusindexes” value [1, 5] read?
A: The value was 48,00 Prozent.

Q: And the Ulkusindex [1, 4]?
A: The Ulkusindex was 28,60.

Q: With `CNC(=NCCSCc1nc[nH]c1C)NC#N` [Cimetidin, N-Cyan-N-methyl-N-2/ 4-methyl-imidazolin/methylthio-ethylguanidinium, reference compound] as the compound, how does the “Prozentsatz der Unterdrückung des Ulkusindexes” value ([2]; 100 mg/kg) read?
A: Its value is 38,00 Prozent.

Q: And the Ulkusindex ([2]; 100 mg/kg)?
A: The Ulkusindex was 27,62.

Q: And the Ulkusindex (Geschwüren nach Shei; rats, 100 mg/kg)?
A: The Ulkusindex was 12,2.

Q: Which “Prozent der Unterdrückung des Ulkusindexes” value [1, 5] does the source give for `CCOC(=O)Nc1cccc2c1CN(C)CC2c1ccc(Cl)cc1.O=C(O)/C=C\C(=O)O` (stereo not drawn) [Ic, /-/-2-Methyl-4-/4-chlorphenyl/8-ethoxycarbonylamino-1,2,3,4-tetrahydroisochinolin-saures Maleat] here?
A: Its value is 28,20 Prozent.

Q: What about the Ulkusindex [1, 4] of the same compound?
A: The Ulkusindex was 39,58.

Q: For `CCOC(=O)Nc1cccc2c1CN(C)CC2c1ccccc1` (racemic) [Ie, 2-Methyl-4-phenyl-8-ethoxycarbonylamino-1,2,3,4-tetrahydroisochinolin], which “Prozent der Unterdrückung des Ulkusindexes” value [1, 5] is on record?
A: Its value is 40,60 Prozent.

Q: And the Ulkusindex [1, 4]?
A: Its Ulkusindex is 32,70.

Q: For `CCOC(=O)Nc1cccc2c1CN(C)CC2c1ccc(Cl)cc1` (racemic) [Ia, 2-Methyl-4-/4-Chlorphenyl/-8-Ethoxykarbonylamino-1,2,3,4-tetrahydroisochinolin], which “Prozent der Unterdrückung des Ulkusindexes” value [1, 5] is on record?
A: Its value is 92,1 Prozent.

Q: And the Ulkusindex [1, 4]?
A: The Ulkusindex was 4,33.

Q: What about the “Prozent der Unterdrückung des Ulkusindexes” value ([1]; Table 3, oral, 0,100 mg/kg) of the same compound?
A: The value was 46 Prozent.

Q: And the Ulkusindex ([1]; Table 3, oral, 0,100 mg/kg, Kontrolle 76.6)?
A: The Ulkusindex was 41,3.

Q: What about the “Prozent der Unterdrückung des Ulkusindexes” value ([1]; Table 3, oral, 0,250 mg/kg) of the same compound?
A: Its value is 57,3 Prozent.

Q: What about the Ulkusindex ([1]; Table 3, oral, 0,250 mg/kg, Kontrolle 76.6) of the same compound?
A: Its Ulkusindex is 32,7.

Q: What about the “Prozent der Unterdrückung des Ulkusindexes” value ([1]; Table 3, oral, 0,500 mg/kg) of the same compound?
A: Its value is 75,5 Prozent.

Q: And the Ulkusindex ([1]; Table 3, oral, 0,500 mg/kg, Kontrolle 76.6)?
A: Its Ulkusindex is 18,8.

Q: And the “Prozent der Unterdrückung des Ulkusindexes” value ([1]; Table 3, oral, 1,000 mg/kg)?
A: The value was 85,00 Prozent.

Q: What about the Ulkusindex ([1]; Table 3, oral, 1,000 mg/kg, Kontrolle 76.6) of the same compound?
A: The Ulkusindex was 11,3.

Q: What about the “höhere Ulkusaktivität im Vergleich zu Ranitidin” value ([1]; ratio of doses for maximal suppression: Ia 1 mg/kg vs Ranitidin 30 mg/kg (Tables 3 and 4)) of the same compound?
A: Its value is 30 fach.

Q: What about the LD50 (acute toxicity in mice; ip, intraperitoneal) of the same compound?
A: Its LD50 is 125 mg/kg.

Q: What about the LD50 (acute toxicity in mice; oral) of the same compound?
A: Its LD50 is 250 mg/kg.

Q: What about the “Prozentsatz der Unterdrückung des Ulkusindexes” value ([3]; Table 5, peroral, 0,050 mg/kg) of the same compound?
A: The value was 37 Prozent.

Q: What about the Ulkusindex ([3]; Table 5, peroral, 0,050 mg/kg, Indometacin 35 mg/kg i.p., Kontrolle 19,5) of the same compound?
A: Its Ulkusindex is 12,2.

Q: What about the “Prozentsatz der Unterdrückung des Ulkusindexes” value ([3]; Table 5, peroral, 0,250 mg/kg) of the same compound?
A: Its value is 40,6 Prozent.

Q: And the Ulkusindex ([3]; Table 5, peroral, 0,250 mg/kg, Kontrolle 19,5)?
A: The Ulkusindex was 10,4.

Q: What about the “Prozentsatz der Unterdrückung des Ulkusindexes” value ([3]; Table 5, peroral, 0,500 mg/kg) of the same compound?
A: The value was 52 Prozent.

Q: And the Ulkusindex ([3]; Table 5, peroral, 0,500 mg/kg, Kontrolle 19,5)?
A: Its Ulkusindex is 9,3.

Q: And the “Prozentsatz der Unterdrückung des Ulkusindexes” value ([3]; Table 5, peroral, 1,100 mg/kg)?
A: Its value is 78 Prozent.

Q: What about the Ulkusindex ([3]; Table 5, peroral, 1,100 mg/kg, Kontrolle 19,5) of the same compound?
A: The Ulkusindex was 4,2.

Q: And the Unterdrückungsprozentsatz ([3]; peroral, minimal dose printed as 0,1 mg/kg)?
A: The Unterdrückungsprozentsatz was 37.

Q: What about the Ulkusindex ([3]; peroral, minimal dose printed as 0,1 mg/kg, Kontrolltiere 19,5) of the same compound?
A: The Ulkusindex was 12,2.

Q: What about the “Prozentsatz der Unterdrückung des Ulkusindexes” value ([2]; peroral, 1 mg/kg) of the same compound?
A: Its value is 47,2 Prozent.

Q: What about the Ulkusindex ([2]; peroral, 1 mg/kg) of the same compound?
A: Its Ulkusindex is 23,5.

Q: And the “Prozentsatz der Unterdrückung des Ulkusindexes” value ([2]; peroral, 2 mg/kg)?
A: The value was 57,37 Prozent.

Q: And the Ulkusindex ([2]; peroral, 2 mg/kg)?
A: Its Ulkusindex is 19,00.

Q: What about the “Prozentsatz der Unterdrückung des Ulkusindexes” value ([2]; peroral, 3 mg/kg) of the same compound?
A: The value was 41,00 Prozent.

Q: What about the Ulkusindex ([2]; peroral, 3 mg/kg) of the same compound?
A: The Ulkusindex was 26,00.

Q: And the “Prozentsatz der Unterdrückung des Ulkusindexes” value ([2]; peroral, 0,250 mg/kg)?
A: Its value is 6,9 Prozent.

Q: What about the Ulkusindex ([2]; peroral, 0,250 mg/kg, Reserpin 5 mg/kg) of the same compound?
A: Its Ulkusindex is 41,5.

Q: What about the “Prozentsatz der Unterdrückung des Ulkusindexes” value ([2]; peroral, 0,500 mg/kg) of the same compound?
A: The value was 17 Prozent.

Q: And the Ulkusindex ([2]; peroral, 0,500 mg/kg)?
A: The Ulkusindex was 37.

Q: And the “Prozentsatz der Unterdrückung des Ulkusindexes” value ([2]; peroral, 1,5 mg/kg)?
A: Its value is 52,15 Prozent.

Q: What about the Ulkusindex ([2]; peroral, 1,5 mg/kg) of the same compound?
A: The Ulkusindex was 21,33.

Q: And the “Ulkuseffekt gegenüber Vergleichspräparaten Cimetidin und Ranitidin” value ([2]; maximal effect of Ia at 1,5 and 2 mg/kg vs Cimetidin 100 mg/kg and Ranitidin 30 mg/kg)?
A: Its value is “mehrfach höher”.

Q: And the Ulkusindex (Geschwüren nach Shei; rats, 0,100 mg/kg, 5 h after ligature)?
A: The Ulkusindex was 22.

Q: What about the Ulkusindex (Geschwüren nach Shei; rats, 0,500 mg/kg) of the same compound?
A: Its Ulkusindex is 13.

Q: And the Ulkusindex (Geschwüren nach Shei; rats, 1,5 mg/kg)?
A: The Ulkusindex was 7,13.

Q: And the Ulkusindex (Geschwüren nach Shei; rats, 1,000 mg/kg)?
A: The Ulkusindex was 8,25.

Q: For `CNC(=C[N+](=O)[O-])NCCSCc1ccc(CN(C)C)o1` [Ranitidin, N-/5-Dimethylamino-methyl/-2-furanil-methyl-thioethyl-/N-methyl-2-nitro/-1,1-ethan-diamin, reference compound], which “Prozentsatz der Unterdrückung des Ulkusindexes” value ([1]; Table 4, peroral, 0,5 mg/kg) is on record?
A: Its value is roughly 27 Prozent.

Q: And the Ulkusindex ([1]; Table 4, peroral, 0,5 mg/kg, Kontrolle 44,3)?
A: The Ulkusindex was 32,3.

Q: What about the “Prozentsatz der Unterdrückung des Ulkusindexes” value ([1]; Table 4, peroral, 1 mg/kg) of the same compound?
A: Its value is 39,27 Prozent.

Q: What about the Ulkusindex ([1]; Table 4, peroral, 1 mg/kg, Kontrolle 44,3) of the same compound?
A: Its Ulkusindex is 26,9.

Q: And the “Prozentsatz der Unterdrückung des Ulkusindexes” value ([1]; Table 4, peroral, 3 mg/kg)?
A: Its value is 35,89 Prozent.

Q: What about the Ulkusindex ([1]; Table 4, peroral, 3 mg/kg, Kontrolle 44,3) of the same compound?
A: The Ulkusindex was 28,4.

Q: What about the “Prozentsatz der Unterdrückung des Ulkusindexes” value ([1]; Table 4, peroral, 10 mg/kg) of the same compound?
A: The value was 48,98 Prozent.

Q: What about the Ulkusindex ([1]; Table 4, peroral, 10 mg/kg, Kontrolle 44,3) of the same compound?
A: The Ulkusindex was 22,6.

Q: And the “Prozentsatz der Unterdrückung des Ulkusindexes” value ([1]; Table 4, peroral, 30 mg/kg)?
A: The value was 61,62 Prozent.

Q: And the Ulkusindex ([1]; Table 4, peroral, 30 mg/kg, Kontrolle 44,3)?
A: Its Ulkusindex is 17,0.

Q: And the “Prozentsatz der Unterdrückung des Ulkusindexes” value ([2]; 30 mg/kg)?
A: Its value is 48,40 Prozent.

Q: And the Ulkusindex ([2]; 30 mg/kg)?
A: The Ulkusindex was 23,00.

Q: And the Ulkusindex (Geschwüren nach Shei; rats, 30 mg/kg)?
A: Its Ulkusindex is 9.

Q: For `CN1Cc2c(Cl)cccc2C(c2ccccc2)C1` (stereo not drawn) [Ih, 2-Methyl-4-phenyl-8-chlor-1,2,3,4-tetrahydroisochinolin], which “Prozent der Unterdrückung des Ulkusindexes” value [1, 5] is on record?
A: Its value is 36,60 Prozent.

Q: What about the Ulkusindex [1, 4] of the same compound?
A: Its Ulkusindex is 34,90.

Q: With `CN1Cc2c(N)cccc2C(c2ccc(Cl)cc2)C1` (stereo not drawn) [Id, 2-Methyl-4-/4-chlorphenyl/-8-amino-1,2,3,4-tetrahydroisochinolin] as the compound, how does the “Prozent der Unterdrückung des Ulkusindexes” value [1, 5] read?
A: The value was 86,40 Prozent.

Q: What about the Ulkusindex [1, 4] of the same compound?
A: The Ulkusindex was 7,50.

Q: For `CCOC(=O)Nc1cccc2c1CN(C)CC2c1ccccc1` (racemic) [If, /+/-2-Methyl-4-phenyl-8-ethoxycarbonylamino-1,2,3,4-tetrahydroisochinolin], which “Prozent der Unterdrückung des Ulkusindexes” value [1, 5] is on record?
A: The value was 36,30 Prozent.

Q: What about the Ulkusindex [1, 4] of the same compound?
A: Its Ulkusindex is 35,10.

Q: Which Antigeschwüreffekt (Streßgeschwüren) does the source give for `CN1Cc2c(N)cccc2C(c2ccccc2)C1.O=C(O)/C=C\C(=O)O` (stereo not drawn) [Alival, 2-Methyl-4-phenyl-8-amino-1,2,3,4-tetrahydroisochinolin-saueres-Maleat] here?
A: Its Antigeschwüreffekt is “einen Antigeschwüreffekt aufweist”.

Q: And the “Inhibierung des saueren Magensekrets” value (sauere Magensekret)?
A: The value was “nicht inhibiert”.

From EP0314828A1, “4-Phenyl-1,2,3,4-tetrahydroisoquinolins as ulcer agents” (S O "PHARMACHIM", priority 1987, dated 1989)
